Measured values: publication PMC7913210 (Pharmaceutics, 2021)

How the values were obtained:
[1] = Parent-metabolite PK model (non-linear mixed-effect modeling) after SC LHA administration; format: in vivo, Sprague-Dawley rats
Method: In addition, a combined transit model with first-order absorption was evaluated to better describe absorption phase. In the transit model, the optimal number of transit compartments (NTR) and the mean transit time (MTT) were estimated. The transit model introduced three parameters—Ktr, NTR, and MTT. Two of these three parameters were estimated. The relationship of these parameters is shown in the following equation: MTT= (NTR+1)/Ktr The inter-individual variability (IIV) was assessed using an exponential variability model as following equation: Pi=Ptv ×exp (ETA) where Pi represents the value of the individual PK parameter, Ptv is a typical value for P, and ETA indicates an interindividual random effect with the mean of zero and variance of ω^2. Residual random variability (ε) was calculated using a proportional error model for the three types of observations. Optimal model selection was guided by changes in diagnostic values including twice the negative log like (−2LL), Akaike information Criterion (AIC), Baysian Information Criteria (BIC), visual inspection of various diagnostic plots (goodness of fit plot), and precision of parameter estimates. The visual predictive check (VPC) and boot strap analysis was conducted for non-parametric evaluation of the model. Graphical diagnostics including basic goodness-of-fit plot and other accessory plots were used for single run-based diagnostics during model development. For the final model, the robustness and predictive performance were evaluated using multiple run-based diagnostics such as bootstrapping. A bootstrap procedure was conducted with a total of 1000 bootstrap-resampled datasets from the original dataset. Bootstrap results of median and 95% confidence intervals (CIs, […]) were compared with final parameter estimates. The 95% confidence intervals of parameters obtained from this step were compared with final parameter estimates.

[2] = cited from earlier work
[3] = SC LHA, rats, model estimate (fixed effect)

Compound	CLm2/F, Apparent Metabolite clearance ([1]; SC LHA, rats, second metabolite (GX), model estimate) [L/h]	potency as anti-arrhythmic agent relative to lidocaine [2]	Vmax, Maximum rate of reaction ([1]; SC LHA, rats, Michaelis-Menten elimination of lidocaine, model estimate)	MTT, Mean Transit Time [1, 3] [h]	Ntr, Number of transit compartments [1, 3]	Fm2, Fraction of the first metabolite converted to second metabolite ([1]; SC LHA, rats, MEGX to GX, model estimate)	CLm1/F, Apparent Metabolite (MEGX) clearance [1, 3] [L/h]	MEGX converted into GX ([1]; model prediction, hyaluronic acid pre-incorporated lidocaine injected subcutaneously)
Cc1cccc(C)c1NC(=O)CN [GX, glycylxylidide]	1.09	~10%						
CCN(CC)CC(=O)Nc1c(C)cccc1C [Lidocaine, reference compound]			423,962.94 nmol/h	0.64	4.97			
CCNCC(=O)Nc1c(C)cccc1C [MEGX, monoethylglycylxylidide]		approximately 80%				0.47	14.94	about 47%
